These compounds were tested on NCI-H460 (assay: Cytotoxicity against human NCI-H460 cells after 48 hrs by MTT assay). Settings: NCI-H460, 48 h.
Assay type: functional, cell-based

SMILES | IC50 [nM]
CC[C@H](C)[C@H]1C(=O)N2CCC[C@H]2C(=O)O[C@H](C(C)(C)C)C[C@@H](C)C[C@H](O)[C@H](C)C2=N[C@@H](/C=C(\C)C(=O)N[C@@H](Cc3ccc(OC)cc3)C(=O)N(C)[C@@H](C)C(=O)N1C)C[S+]2[O-] (stereo partly drawn) | 89.9
CC[C@H](C)[C@H]1C(=O)N2CCCC[C@H]2C(=O)O[C@H](C(C)(C)C)C[C@@H](C)C[C@H](O)[C@H](C)C2=N[C@@H](/C=C(\C)C(=O)N[C@@H](Cc3ccc(OC)cc3)C(=O)N(C)[C@@H](C)C(=O)N1C)CS2 | 3.4
CC[C@H](C)[C@H]1C(=O)N2CCC[C@H]2C(=O)O[C@H](C(C)(C)C)C[C@@H](C)C[C@H](O)[C@H](C)C2=N[C@@H](/C=C(\C)C(=O)N[C@@H](Cc3ccc(OC)cc3)C(=O)N(C)[C@@H](C)C(=O)N1C)CS2 [APRATOXIN A] | 2.5

From ChEMBL document CHEMBL2417533, “Apratoxin H and apratoxin A sulfoxide from the Red Sea cyanobacterium Moorea producens” (J Nat Prod, 2013)
